Source: patent US20220304976A1, “Method of simultaneously treating viral disease caused coronavirus, its variants and mutants using a pharmaceutical micronutrient composition” (priority 2021, published 2022)

Tested on: A549 cells expressing SARS-CoV-2 spike protein fusing with A549 cells overexpressing hACE2
Type: cell-based, human

Compound | decrease of cell attachment (cell-cell fusion) | reduction of cell-cell fusion (in words)
Oc1ccc2c(c1)OC[C@]1(O)Cc3cc(O)c(O)cc3[C@H]21 [Brazilin] | 40% | can reduce cell-cell fusion
COc1cc(/C=C/C(=O)CC(=O)/C=C/c2ccc(O)c(OC)c2)ccc1O [Curcumin] |  | can reduce cell-cell fusion
Theaflavine-3′3-digallate |  | can reduce cell-cell fusion
